Some test systems named below: SNB-75 CNS; COLO 205 colon; SN12C renal; UO-31 renal; HCT-116 colon; RXF 393 renal; A549 NSCLC; MCF7 breast; T-47D breast; BT-549 breast.
Holding throughout (test): growth of human tumour cells (NCI), 48 h

Where “and” joins values, the source holds several entries; their conditions need not be identical. Identical values can stand only once.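 Cells were grown in 96-well plates and exposed to each compound for 48 hours at five concentrations; endpoints were interpolated linearly between bracketing concentrations, or set to the highest concentration if not reached. GI50: concentration for 50% inhibition of growth. Definition used: TGI = concentration required for complete inhibition of growth.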

The results in this text go back to PubChem BioAssay (NCI).

For `O=C(CC1SC(=Nc2ccccc2Cl)NC1=O)Nc1ccc(Cl)cc1Cl` (stereo not given), the TGI in the test with SNB-75 CNS, in the test with COLO 205 colon, with SN12C renal, with UO-31 renal, with HCT-116 colon and with RXF 393 renal was > 100 µM each time. Further, the TGI in the test with A549 NSCLC was > 100 µM.

On to `O=c1[nH]cc(F)c(=O)n1C1OC(CO)C(O)C1O` (stereo not given), for which the TGI in the test with SNB-75 CNS, in the test with COLO 205 colon, in the test with SN12C renal, in the test on UO-31 renal, in the test on RXF 393 renal and with A549 NSCLC was > 100 µM in each case.

Regarding `O=C(c1nc2ccccc2[nH]c1=O)C(O)c1ccccc1` (stereo not given), the TGI in the test on COLO 205 colon, in the test on SN12C renal, in the test with UO-31 renal, in the test with HCT-116 colon and with A549 NSCLC was > 100 µM throughout.

Take `CC(=O)OCCOCNC(=S)N/N=C/c1cc(Br)cs1`: the TGI with SNB-75 CNS, in the test with COLO 205 colon, in the test on SN12C renal, with UO-31 renal, with HCT-116 colon and in the test with RXF 393 renal was > 100 µM each time. For the same compound, the TGI in the test with A549 NSCLC is > 100 µM.

In the case of `CCCCCO/N=C\c1c2c(O)c3c(O)c(C)c4c(c3c1O)C(=O)C(C)(O/C=C\C(OC)C(C)C(OC(C)=O)C(C)C(O)C(C)C(O)C(C)/C=C\C=C(\C)C(=O)N2)O4` (stereo not given), the GI50 was 1.46 µM in the test on SNB-75 CNS; 1.71 µM with MCF7 breast; 1.52 µM with COLO 205 colon; 1.63 µM in the test on SN12C renal; 1.65 µM with HCT-116 colon; 2.15 µM with T-47D breast. The figures for the GI50 with RXF 393 renal and with A549 NSCLC were 1.71 µM and 1.8 µM, respectively. Moreover, the TGI was 2.87 µM in the test with SNB-75 CNS; 3.54 µM in the test on MCF7 breast; 2.85 µM in the test on COLO 205 colon; 3.35 µM with SN12C renal; 3.01 µM in the test on HCT-116 colon; 5.33 µM in the test on T-47D breast. In addition, the TGI was 3.1 µM in the test with RXF 393 renal and 3.39 µM with A549 NSCLC.

As to `CC1(c2ccccc2Cl)C(C#N)C(=O)NC(=O)C1C#N` (stereo not given), the TGI in the test with SNB-75 CNS was 75.4 µM; in the test on COLO 205 colon, > 100 µM; with SN12C renal, > 100 µM; with UO-31 renal, > 100 µM; in the test on RXF 393 renal it was > 100 µM; with A549 NSCLC, > 100 µM.

With `COCOCC/C=C/C=O`, the TGI in the test with SNB-75 CNS, with COLO 205 colon, in the test with SN12C renal, in the test on UO-31 renal, in the test on HCT-116 colon and in the test with RXF 393 renal was > 100 µM throughout. In addition, the TGI with A549 NSCLC is > 100 µM.

`Cc1ccc(S(=O)(=O)N/N=C(/CC(=O)c2c(C)n([O-])c3ccccc3[n+]2=O)C(=O)Nc2ccccc2C)cc1`: the TGI with SNB-75 CNS, with COLO 205 colon, in the test on SN12C renal, in the test on UO-31 renal, in the test with HCT-116 colon and in the test on RXF 393 renal was > 100 µM each time. For the same compound, the TGI in the test with A549 NSCLC is > 100 µM.

Consider `Cc1ccc(C)c(N2C(=O)C(=O)C(c3nc4ccccc4s3)/C(=N/NC(=O)NN)C2=O)c1` (stereo not given), for which the TGI in the test on SNB-75 CNS, in the test with COLO 205 colon, in the test with SN12C renal, in the test on UO-31 renal, in the test on HCT-116 colon and in the test with RXF 393 renal was > 100 µM each time. Moreover, in the test with A549 NSCLC, the TGI is > 100 µM.

With `COc1ccc(-c2cc(C(=O)Nc3ccc(C)c(C)c3)nc(NC#N)n2)cc1`, the TGI in the test with SNB-75 CNS, in the test with COLO 205 colon, with SN12C renal, in the test on UO-31 renal, in the test with HCT-116 colon and with RXF 393 renal was > 100 µM in each case. In addition, in the test on A549 NSCLC, the TGI was > 100 µM.

Consider `NC(=O)c1csc(C2OC(COP(=O)(O)CP(=O)(O)OCC3OC(n4cnc5c(N)ncnc54)C(O)C3O)C(O)C2O)n1` (stereo not given), for which the TGI with SNB-75 CNS, with COLO 205 colon, in the test with SN12C renal, in the test on UO-31 renal and in the test with A549 NSCLC was > 100 µM in each case.

For `CC1(C)CC(=O)C(/C(=N/NC(=S)NN)C(=O)Nc2nc3ccc([N+](=O)[O-])cc3s2)C(=O)C1`, the TGI in the test with SNB-75 CNS, with COLO 205 colon, in the test with SN12C renal, in the test with UO-31 renal, with HCT-116 colon and in the test on RXF 393 renal was > 100 µM in each case. Also, the TGI with A549 NSCLC was > 100 µM.

With `CC(C)(Br)C(=O)C(Br)Br`, the GI50 is 5.04 µM in the test on SNB-75 CNS; 4.06 µM with COLO 205 colon; 6.13 µM in the test on SN12C renal; 5.5 µM in the test on UO-31 renal; 5.33 µM in the test on HCT-116 colon; 5.31 µM in the test with RXF 393 renal. In addition, in the test on A549 NSCLC, the GI50 was 11 µM. The TGI was 26.7 µM and 9.38 µM in the test with SNB-75 CNS; 7.04 µM and 8.3 µM in the test with COLO 205 colon; 9.13 µM in the test with BT-549 breast; > 43.1 µM and 11.2 µM with SN12C renal; 31.4 µM and 9.8 µM in the test on UO-31 renal; 9.91 µM and 9.61 µM in the test with HCT-116 colon. Moreover, the TGI is 10 µM and 9.81 µM in the test on RXF 393 renal; 37.3 µM and 41 µM in the test on A549 NSCLC.

For the compound `C[CH2][Sn]([CH2]C)([O]C(=O)c1ccccc1OC)[O][Sn]([CH2]C)([CH2]C)[O]C(=O)c1ccccc1OC`, the GI50 in the test with SNB-75 CNS is > 100 µM; in the test on COLO 205 colon it was > 100 µM; in the test with SN12C renal, > 100 µM; with UO-31 renal, > 100 µM; with HCT-116 colon, > 100 µM; with RXF 393 renal, 43.3 µM. The GI50 with A549 NSCLC is > 100 µM. Moreover, the TGI in the test on SNB-75 CNS, in the test with COLO 205 colon, in the test on SN12C renal, in the test on UO-31 renal, in the test on HCT-116 colon and in the test with RXF 393 renal was > 100 µM each time. Besides, in the test with A549 NSCLC, the TGI is > 100 µM.

For the compound `COc1ccc(/C=C2\CCC(C)(CN(C)C)C2=O)cc1OC` (stereo not given), the TGI in the test on SNB-75 CNS, with COLO 205 colon, in the test on SN12C renal, with UO-31 renal, in the test with HCT-116 colon and in the test on RXF 393 renal was > 100 µM each time. Also, in the test with A549 NSCLC, the TGI is > 100 µM.

For the compound `O=C1Nc2ccccc2N=CC1NC(=O)C(c1ccccc1)c1ccccc1` (stereo not given), the TGI in the test on SNB-75 CNS, with COLO 205 colon, in the test with SN12C renal, with UO-31 renal, with HCT-116 colon and in the test on RXF 393 renal was > 100 µM throughout. Also, the TGI in the test with A549 NSCLC was > 100 µM.
